According to ChEMBL document CHEMBL6083250, “Core Modifications of GSK3335103 toward Orally Bioavailable αvβ6 Inhibitors with Improved Synthetic Tractability” (J Med Chem, 2024):

Tests used:
[1] = in vitro; settings: PAMPA
[2] = Lipophilicity, logD of compound at pH 7.4 by chromatography; format: physicochemical; settings: buffer
[3] = Volume of distribution at steady state in Wistar Han rat at 1 mg/kg, iv at 7 to 24 hrs by LC-MS/MS analysis; format: ADME, organism-based; settings: in vivo, time 7-24 hrs, read-out: Vdss
[4] = MRT in Wistar Han rat at 1 mg/kg, iv at 7 to 24 hrs by LC-MS/MS analysis; format: ADME, organism-based; settings: in vivo, time 7-24 hrs
[5] = Unbound AUC in Wistar Han rat at 2 mg/kg, po at 7 to 24 hrs by LC-MS/MS analysis; format: ADME, organism-based; settings: in vivo, time 7-24 hrs
[6] = Oral availability in Wistar Han rat at 1 mg/kg at 7 to 24 hrs by LC-MS/MS analysis; format: ADME, organism-based; settings: in vivo, time 7-24 hrs
[7] = Kinetic solubility of compound by CAD analysis; format: physicochemical; settings: read-out: Kinetic_solubility
[8] = Cmax in Wistar Han rat at 1 mg/kg, po at 7 to 24 hrs by LC-MS/MS analysis; format: ADME, organism-based; settings: in vivo, time 7-24 hrs
[9] = Dissociation constant, pKa of compound; format: physicochemical
[10] = AUC in Wistar Han rat at 1 mg/kg, po at 7 to 24 hrs by LC-MS/MS analysis; format: ADME, organism-based; settings: in vivo, time 7-24 hrs
[11] = Unbound AUC in Wistar Han rat at 1 mg/kg, po at 7 to 24 hrs by LC-MS/MS analysis; format: ADME, organism-based; settings: in vivo, time 7-24 hrs

Papp [1] [×10⁻⁶ cm/s] | chromatographic logD [2] | SMILES | also measured
2.7 |  | O=C(O)C[C@H](CN1CC[C@@H](CCc2ccc3c(n2)NCCC3)C1)c1cccc(N2CCOCC2)c1 | 
3.2 | 3 | COCCOc1cccc([C@@H](CC(=O)O)CN2CC(C(F)(F)CCc3ccc4c(n3)NCCC4)C2)c1 | 
< 0.3 |  | O=C(O)C[C@H](CN1CC(CCc2ccc3c(n2)NCCC3)C1)c1cccc(N2CCOCC2)c1 | 
14.6 | 2.9 | COCCOc1cccc([C@H](CC(=O)O)CN2CC[C@@](F)(CCc3ccc4c(n3)NCCC4)C2)c1 | Vd [3]: 3.6 L/kg; MRT [4]: 3 h; fAUC [5]: 280 ng·h/mL; bioavailability [6]: 93%; solubility kinetic [7]: ≥ 238 µg/mL; Cmax [8]: 530 ng/mL; pKa [9]: 4.1
16.3 | 3.1 | COc1cc([C@H](CC(=O)O)CN2CC(C(F)(F)CCc3ccc4c(n3)NCCC4)C2)ccc1F | AUC [10]: 881 ng·h/mL; Vd [3]: 4.6 L/kg; MRT [4]: 3.1 h; bioavailability [6]: 94%; solubility kinetic [7]: ≥ 159 µg/mL; fAUC [11]: 135 ng·h/mL; pKa [9]: 4
< 0.3 |  | Cc1cc(C)n(-c2cccc([C@@H](CC(=O)O)CN3CC(CCCc4ccc5c(n4)NCCC5)C3)c2)n1 | 
6.5 | 2.4 | COCCOc1cccc([C@@H](CC(=O)O)CN2CC(SCCc3ccc4c(n3)NCCC4)C2)c1 | 
< 1 |  | Cc1cc(C)n(-c2cccc([C@H](CC(=O)O)CN3CC(CCCc4ccc5c(n4)NCCC5)C3)c2)n1 | 
8.8 | 3 | COCCOc1cccc([C@H](CC(=O)O)CN2CC(C(F)(F)CCc3ccc4c(n3)NCCC4)C2)c1 | AUC [10]: 95 ng·h/mL; Vd [3]: 3 L/kg; MRT [4]: 1.7 h; bioavailability [6]: 17%; fAUC [11]: 38 ng·h/mL; Cmax [8]: 20.4 ng/mL; pKa [9]: 3.9
7.2 | 2.4 | COCCOc1cccc([C@H](CC(=O)O)CN2CC(SCCc3ccc4c(n3)NCCC4)C2)c1 | pKa [9]: 4.3
8.2 | 2.8 | O=C(O)CC(CN1CC(C(F)(F)CCc2ccc3c(n2)NCCC3)C1)c1cccc(O[C@@H]2CCOC2)c1 (mixture of isomers) | 
6.3 | 2.9 | O=C(O)CC(CN1CC(C(F)(F)CCc2ccc3c(n2)NCCC3)C1)c1cccc(O[C@H]2CCOC2)c1 (mixture of isomers) | 
5.5 | 2.9 | COc1cc(C(CC(=O)O)CN2CC(C(F)(F)CCc3ccc4c(n3)NCCC4)C2)ccc1C#N (racemic) | 
23 | 3.2 | COc1cc(C(CC(=O)O)CN2CC(C(F)(F)CCc3ccc4c(n3)NCCC4)C2)ccc1F (racemic) | AUC [10]: 1370 ng·h/mL; Vd [3]: 2.4 L/kg; MRT [4]: 3.8 h; bioavailability [6]: 79%; fAUC [11]: 212 ng·h/mL; Cmax [8]: 313 ng/mL
5.5 | 2.7 | O=C(O)CC(CN1CC(C(F)(F)CCc2ccc3c(n2)NCCC3)C1)c1cccc(N2CCOCC2)c1 (racemic) | 
8.9 | 3.1 | O=C(O)CC(CN1CC(C(F)(F)CCc2ccc3c(n2)NCCC3)C1)c1cccc(OC2CCOCC2)c1 (racemic) | 

Papp [1] [×10⁻⁶ cm/s] | chromatographic logD [2] | SMILES | also measured
21 | 3 | O=C(O)CC(CN1CC(C(F)(F)CCc2ccc3c(n2)NCCC3)C1)c1ccccc1 (racemic) | 
39 | 3.5 | O=C(O)CC(CN1CC(C(F)(F)CCc2ccc3c(n2)NCCC3)C1)c1cccc(OC2CC2)c1 (racemic) | 
15 | 3 | COc1cccc(C(CC(=O)O)CN2CC(C(F)(F)CCc3ccc4c(n3)NCCC4)C2)c1I (racemic) | 
7.4 | 2.5 | O=C(O)CC(CN1CC(C(F)(F)CCc2ccc3c(n2)NCCC3)C1)c1ccnc(C2CC2)c1 (racemic) | 
21 | 3.4 | CCOc1cccc(C(CC(=O)O)CN2CC(C(F)(F)CCc3ccc4c(n3)NCCC4)C2)c1 (racemic) | 
28 | 3.6 | COc1cc(C(CC(=O)O)CN2CC(C(F)(F)CCc3ccc4c(n3)NCCC4)C2)ccc1Cl (racemic) | 
< 0.3 | 2 | COCCOc1cccc(C(CC(=O)O)CN2CC(OCc3ccc4c(n3)NCCC4)C2)c1 (racemic) | pKa [9]: 4
25 | 3.3 | COc1ccc(F)c(C(CC(=O)O)CN2CC(C(F)(F)CCc3ccc4c(n3)NCCC4)C2)c1 (racemic) | AUC [10]: 2460 ng·h/mL; Vd [3]: 1.6 L/kg; MRT [4]: 4.2 h; bioavailability [6]: 91%; fAUC [11]: 163 ng·h/mL; Cmax [8]: 739 ng/mL
10.4 | 2.7 | O=C(O)CC(CN1CC(C(F)(F)CCc2ccc3c(n2)NCCC3)C1)c1ccnc(OC2CC2)c1 (racemic) | 
20 | 3 | COc1cccc(C(CC(=O)O)CN2CC(C(F)(F)CCc3ccc4c(n3)NCCC4)C2)c1 (racemic) | 
13 | 3.3 | Cc1cc(C)n(-c2cccc(C(CC(=O)O)CN3CC(C(F)(F)CCc4ccc5c(n4)NCCC5)C3)c2)n1 (racemic) | AUC [10]: 14 ng·h/mL; Vd [3]: 0.7 L/kg; MRT [4]: 0.2 h; bioavailability [6]: 3%; fAUC [11]: 0.6 ng·h/mL; Cmax [8]: 12.4 ng/mL
43 | 3.7 | O=C(O)CC(CN1CC(C(F)(F)CCc2ccc3c(n2)NCCC3)C1)c1cccc(C2CC2)c1 (racemic) | 
16 | 3 | O=C(O)CC(CN1CC(C(F)(F)CCc2ccc3c(n2)NCCC3)C1)c1ccc2c(c1)OCC2 (racemic) | 
19 | 3.1 | O=C(O)CC(CN1CC(C(F)(F)CCc2ccc3c(n2)NCCC3)C1)c1cccc2c1OCC2 (racemic) | 
10.2 | 2.7 | COc1ncc(C(CC(=O)O)CN2CC(C(F)(F)CCc3ccc4c(n3)NCCC4)C2)cc1C (racemic) | AUC [10]: 1510 ng·h/mL; Vd [3]: 1.1 L/kg; MRT [4]: 2.9 h; bioavailability [6]: 57%; solubility kinetic [7]: ≥ 118 µg/mL; fAUC [11]: 152 ng·h/mL; Cmax [8]: 496 ng/mL
